According to article PMC4342491, “Cross-talk between Two Nucleotide-signaling Pathways in Staphylococcus aureus” (The Journal of Biological Chemistry, 2015):

Assays:
GdpP (rGdpP) [1] = target: T1, GdpP (rGdpP) (Staphylococcus aureus, UniProt Q2G2T6); assay: TLC of radiolabelled c-di-AMP hydrolysis to pApA; assay type: biochemical; details: labelled compound; 20 μM c-di-AMP, 1 μM enzyme, 50 mM Tris pH 8.5, 0.1 mM MnCl2, 20 mM KCl, room temperature, no ppGpp
T1 construct: gene SAOUHSC_00015; residues 84-655, N-terminal transmembrane helices removed
T1 sequence (Q2G2T6 84-655): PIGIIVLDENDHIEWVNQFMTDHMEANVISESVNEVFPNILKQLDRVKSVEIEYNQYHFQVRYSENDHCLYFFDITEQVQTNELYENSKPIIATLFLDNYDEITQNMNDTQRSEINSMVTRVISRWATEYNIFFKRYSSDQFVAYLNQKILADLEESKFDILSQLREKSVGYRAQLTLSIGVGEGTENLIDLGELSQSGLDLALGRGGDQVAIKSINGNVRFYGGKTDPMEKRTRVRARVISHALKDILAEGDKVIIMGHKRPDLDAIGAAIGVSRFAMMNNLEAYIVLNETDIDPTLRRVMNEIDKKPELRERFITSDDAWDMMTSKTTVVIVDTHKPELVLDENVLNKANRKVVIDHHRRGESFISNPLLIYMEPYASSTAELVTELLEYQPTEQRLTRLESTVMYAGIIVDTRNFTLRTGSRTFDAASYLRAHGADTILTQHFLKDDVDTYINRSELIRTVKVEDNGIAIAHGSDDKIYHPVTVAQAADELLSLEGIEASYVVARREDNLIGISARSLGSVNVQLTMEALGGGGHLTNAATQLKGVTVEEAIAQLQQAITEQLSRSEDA

GdpP (rGdpP) [2] = target: T1, GdpP (rGdpP); assay: TLC of […]c-di-AMP hydrolysis to pApA, dose-response fit; assay type: biochemical

Compound | % pApA formation (GdpP (rGdpP) [1]) | Ki (GdpP (rGdpP) [2]) [µM]
Nc1ncnc2c1ncn2[C@@H]1O[C@@H]2COP(=O)(O)O[C@H]3[C@@H](O)[C@H](n4cnc5c(N)ncnc54)O[C@@H]3COP(=O)(O)O[C@H]2[C@H]1O [c-di-AMP] | rGdpP was able to efficiently hydrolyze c-di-AMP in the absence of ppGpp | 
Nc1nc2c(ncn2[C@@H]2O[C@H](COP(=O)(O)OP(=O)(O)O)[C@@H](OP(=O)(O)OP(=O)(O)O)[C@H]2O)c(=O)[nH]1 [ppGpp] |  | 130 ± 42.8
